Source: the NIST ThermoML archive (doi:10.1021/je700714m)

Assays:
[1] = refractive index (Na D-line) (dimensionless); xn = mol fraction of the nth substance listed; details: 100 kPa, Liquid
[2] = xn = mol fraction of the nth substance listed; details: for mass density / speed of sound / viscosity: 100 kPa, Liquid

COc1ccc(C=O)cc1 [4-methoxybenzaldehyde] + Clc1ccccc1
Details | mass density, [2] [kg/m3] | refractive index, [1] | speed of sound, [2] [m/s] | surface tension liquid-gas, [2] [mN/m] | viscosity, [2] [mPa·s]
303.15 K, x1 = 0.144 | 1105.1 | 1.5589 | 1339 | 43.12 | 0.8478
303.15 K, x1 = 0.2517 | 1107 | 1.5587 | 1383 | 50.12 | 1.023
303.15 K, x1 = 0.3354 | 1109.1 | 1.5586 | 1418 | 56 | 1.168
303.15 K, x1 = 0.4308 | 1111.2 | 1.5585 | 1459 | 62.5 | 1.334
303.15 K, x1 = 0.5457 | 1113.2 | 1.5583 | 1505 | 70.14 | 1.566
303.15 K, x1 = 0.6271 | 1115.3 | 1.5581 | 1537 | 75.82 | 1.771
303.15 K, x1 = 0.7371 | 1118 | 1.5578 | 1580 | 84.11 | 2.086
303.15 K, x1 = 0.8079 | 1122 | 1.5576 | 1607 | 87.59 | 2.353
303.15 K, x1 = 0.9439 | 1124 | 1.5572 | 1662 | 96.09 | 2.948
303.15 K, x1 = 1 | 1125.5 | 1.5571 | 1684 | 99.08 | 3.275
313.15 K, x1 = 0.144 | 1085.1 | 1.5508 | 820 | 41.6 | 0.7705
313.15 K, x1 = 0.2517 | 1089.3 | 1.5507 | 924 | 49.11 | 0.9236
313.15 K, x1 = 0.3354 | 1092.1 | 1.5506 | 1004 | 55.33 | 1.047
313.15 K, x1 = 0.4308 | – | 1.5504 | 1097 | 62.12 | 1.178
313.15 K, x1 = 0.5457 | 1100.5 | 1.5502 | 1207 | 71.23 | 1.357
313.15 K, x1 = 0.6271 | 1103.5 | 1.55 | 1283 | 78.22 | 1.497
313.15 K, x1 = 0.7371 | 1107.2 | 1.5497 | 1385 | 83.11 | 1.762
313.15 K, x1 = 0.8079 | 1110.2 | 1.5494 | 1452 | 86.41 | 1.986
313.15 K, x1 = 0.9439 | 1116.3 | 1.549 | 1577 | 94.66 | 2.596
313.15 K, x1 = 1 | 1119.1 | 1.5488 | 1631 | 96.11 | 2.97
323.15 K, x1 = 0.144 | 1073.5 | 1.548 | 738 | 40.52 | 0.6646
323.15 K, x1 = 0.2517 | 1078.6 | 1.5479 | 758 | 47.99 | 0.8222
323.15 K, x1 = 0.3354 | 1082.5 | 1.5478 | 850 | 53.34 | 0.9386
323.15 K, x1 = 0.4308 | 1086.3 | 1.5477 | 955 | 60.11 | 1.059
323.15 K, x1 = 0.5457 | 1091.6 | 1.5475 | 1082 | 68.77 | 1.192
323.15 K, x1 = 0.6271 | 1095 | 1.5475 | 1170 | 75.22 | 1.287
323.15 K, x1 = 0.7371 | 1100 | 1.5474 | 1290 | 82.89 | 1.474
323.15 K, x1 = 0.8079 | 1103 | 1.547 | 1365 | 85.22 | 1.635
323.15 K, x1 = 0.9439 | 1110.1 | 1.5466 | 1511 | 93.44 | 2.122
323.15 K, x1 = 1 | 1114.1 | 1.5463 | 1571 | 94.1 | 2.442
